# Results: patent US9174952B2, “Substituted 3-thiazoloamino-propionic acid derivatives and their use as pharmaceuticals” (SANOFI, priority 2011, dated 2015)
# Target: T1, Recombinant human cathepsin A (Homo sapiens, UniProt P10619)
# T1 construct: Recombinant human cathepsin A (residues 29-480, with a C-terminal 10-His tag); 10-His (C); purchased R&D Systems 1049-SE
# T1 sequence (P10619 29-326 limits assumed): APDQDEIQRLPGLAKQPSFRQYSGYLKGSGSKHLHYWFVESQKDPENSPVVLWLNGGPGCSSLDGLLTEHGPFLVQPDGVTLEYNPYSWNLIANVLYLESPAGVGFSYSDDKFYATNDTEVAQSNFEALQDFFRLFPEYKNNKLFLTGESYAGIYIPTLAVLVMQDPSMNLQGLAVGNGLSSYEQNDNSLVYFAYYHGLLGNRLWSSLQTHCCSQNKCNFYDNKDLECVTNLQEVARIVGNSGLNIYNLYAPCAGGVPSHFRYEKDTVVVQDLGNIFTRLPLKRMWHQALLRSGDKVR
# T1 sequence (P10619 327-480 limits assumed): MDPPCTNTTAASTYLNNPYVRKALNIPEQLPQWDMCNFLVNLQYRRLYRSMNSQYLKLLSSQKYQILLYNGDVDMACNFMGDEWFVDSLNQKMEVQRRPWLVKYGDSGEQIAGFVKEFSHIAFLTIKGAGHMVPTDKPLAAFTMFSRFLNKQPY
# Test: Cathepsin A inhibitory activity
# Assay type: biochemical
# Conditions: activated recombinant human cathepsin A 833 ng/ml, Bodipy FL-labeled bradykinin substrate 2 μM, pH 5.5, room temperature
# Experimental: a) Cathepsin A Inhibitory Activity
# Recombinant human cathepsin A (residues 29-480, with a C-terminal 10-His tag; R&D Systems, #1049-SE) was proteolytically activated with recombinant human cathepsin L (R&D Systems, #952-CY). Briefly, cathepsin A was incubated at 10 μg/ml with cathepsin L at 1 μg/ml in activation buffer (25 mM 2-(morpholin-4-yl)-ethanesulfonic acid (MES), pH 6.0, containing 5 mM dithiothreitol (DTT)) for 15 min at 37° C. Cathepsin L activity was then stopped by the addition of the cysteine protease inhibitor E-64 (N-(trans-epoxysuccinyl)-L-leucine-4-guanidinobutylamide; Sigma-Aldrich, # E3132; dissolved in activation buffer/DMSO) to a final concentration of 10 μM.
# The activated cathepsin A was diluted in assay buffer (25 mM MES, pH 5.5, containing 5 mM DTT) and mixed with the test compound (dissolved in assay buffer containing (v/v) 3% DMSO) or, in the control experiments, with the vehicle in a multiple assay plate. After incubation for 15 min at room temperature, as substrate then bradykinin carrying an N-terminal ®Bodipy FL (4,4-difluoro-5,7-dimethyl-4-bora-3a,4a-diaza-s-indacene-3-propionyl) label (JPT Peptide Technologies GmbH; dissolved in assay buffer) was added to the mixture. The final concentration of cathepsin A was 833 ng/ml and the final concentration of labeled bradykinin 2 μM. After incubation for 15 min at room temperature the reaction was stopped by the addition of stop buffer (130 mM 2-(4-(2-hydroxy-ethyl)-piperazin-1-yl)-ethanesulfonic acid, pH 7.4, containing (v/v) 0.013% ®Triton X-100, 0.13% Coating Reagent 3 (Caliper Life Sciences), 6.5% DMSO and 20 μM ebelactone B (Sigma, # E0886)).
# Uncleaved substrate and product were then separated by a microfluidic capillary electrophoresis on a LabChip® 3000 Drug Discovery System (12-Sipper-Chip; Caliper Life Sciences) and quantified by determination of the respective peak areas. Substrate turnover was calculated by dividing product peak area by the sum of substrate and product peak areas, and the enzyme activity and the inhibitory effect of the test compound thus quantified. From the percentage of inhibition of cathepsin A activity observed with the test compound at several concentrations, the inhibitory concentration IC50, i.e. the concentration which effects 50% inhibition of enzyme activity was, calculated.
row,SMILES,IC50 [nM]
1,"C[C@@](CC(=O)O)(NC(=O)c1nc(-c2ccccc2)cs1)c1ccccc1 [Example 4, (S)-3-Phenyl-3-[(4-phenyl-thiazole-2-carbonyl)-amino]-butyric acid]",> 10000
2,"Cc1cc(C)n(-c2nc(C(=O)N[C@@H](CC(=O)O)c3ccccc3C)cs2)n1 [Example 6, (S)-3-{[2-(3,5-Dimethyl-pyrazol-1-yl)-thiazole-4-carbonyl]-amino}-3-o-tolyl-propionic acid]",> 10000
3,"Cc1ccccc1[C@H](CC(=O)O)NC(=O)c1csc(-c2cnccn2)n1 [Example 8, (S)-3-[(2-Pyrazin-2-yl-thiazole-4-carbonyl)-amino]-3-o-tolyl-propionic acid]",2630
4,"Cc1cc(C(F)(F)F)n(-c2nc(C(=O)N[C@@H](CC(=O)O)c3ccccc3C)cs2)n1 [Example 9, (S)-3-{[2-(3-Methyl-5-trifluoromethyl-pyrazol-1-yl)-thiazole-4-carbonyl]-amino}-3-o-tolyl-propionic acid]",3590
5,"Cc1ccc(-c2nc(C(=O)N[C@@H](CC(=O)O)c3ccccc3C)cs2)cc1 [Example 10, (S)-3-o-Tolyl-3-[(2-p-tolyl-thiazole-4-carbonyl)-amino]-propionic acid]",187
6,"Cc1ccc([C@H](CC(=O)O)NC(=O)c2nc(-c3ccccc3)cs2)cc1 [Example 11, (S)-3-[(4-Phenyl-thiazole-2-carbonyl)-amino]-3-p-tolyl-propionic acid]",404
7,"O=C(O)C[C@H](NC(=O)c1csc(-c2ccccc2)n1)c1cccc(Cl)c1Cl [Example 13, (S)-3-(2,3-Dichloro-phenyl)-3-[(2-phenyl-thiazole-4-carbonyl)-amino]-propionic acid]",176
8,"O=C(O)C[C@H](NC(=O)c1csc(-c2ccccc2F)n1)c1cccc(Cl)c1Cl [Example 15, (S)-3-(2,3-Dichloro-phenyl)-3-{[2-(2-fluoro-phenyl)-thiazole-4-carbonyl]-amino}-propionic acid]",209
9,"O=C(O)C[C@H](NC(=O)c1csc(-c2ccc(C(F)(F)F)cc2)n1)c1cccc(Cl)c1Cl [Example 16, (S)-3-(2,3-Dichloro-phenyl)-3-{[2-(4-trifluoromethyl-phenyl)-thiazole-4-carbonyl]-amino}-propionic acid]",3020
10,"COc1cccc([C@H](CC(=O)O)NC(=O)c2csc(-c3ccccc3C)n2)c1OC [Example 17, (S)-3-(2,3-Dimethoxy-phenyl)-3-[(2-o-tolyl-thiazole-4-carbonyl)-amino]-propionic acid]",242
11,"COc1cccc([C@H](CC(=O)O)NC(=O)c2csc(-c3ccc(C(F)(F)F)cc3)n2)c1OC [Example 20, (S)-3-(2,3-Dimethoxy-phenyl)-3-{[2-(4-trifluoromethyl-phenyl)-thiazole-4-carbonyl]-amino}-propionic acid]",6340
12,"Cc1ccccc1-c1nc(C(=O)N[C@@H](CC(=O)O)c2ccc(Cl)cc2Cl)cs1 [Example 21, (S)-3-(2,4-Dichloro-phenyl)-3-[(2-o-tolyl-thiazole-4-carbonyl)-amino]-propionic acid]",886
13,"O=C(O)C[C@H](NC(=O)c1csc(-c2ccccc2F)n1)c1ccc(Cl)cc1Cl [Example 24, (S)-3-(2,4-Dichloro-phenyl)-3-{[2-(2-fluoro-phenyl)-thiazole-4-carbonyl]-amino}-propionic acid]",1070
14,"O=C(O)C[C@H](NC(=O)c1csc(-c2cccc(Cl)c2Cl)n1)c1ccccc1Cl [Example 28, (S)-3-(2-Chloro-phenyl)-3-{[2-(2,3-dichloro-phenyl)-thiazole-4-carbonyl]-amino}-propionic acid]",282
15,"O=C(O)C[C@H](NC(=O)c1csc(-c2ccccc2F)n1)c1ccccc1Cl [Example 30, (S)-3-(2-Chloro-phenyl)-3-{[2-(2-fluoro-phenyl)-thiazole-4-carbonyl]-amino}-propionic acid]",377

# The remaining lines, values ahead:
row,IC50 [nM],SMILES
1,1710,"O=C(O)C[C@@H](Cc1ccccc1)NC(=O)c1nc(-c2ccccc2)cs1 [Example 1, (R)-4-Phenyl-3-[(4-phenyl-thiazole-2-carbonyl)-amino]-butyric acid]"
2,> 10000,"O=C(O)CC(NC(=O)c1csc(-c2ccccc2)n1)c1ccc(-c2ccc(F)cc2)cc1 (stereo not drawn) [Example 2, 3-(4′-Fluoro-biphenyl-4-yl)-3-[(2-phenyl-thiazole-4-carbonyl)-amino]-propionic acid]"
3,315,"Cc1cccc([C@H](CC(=O)O)NC(=O)c2nc(-c3ccccc3)cs2)c1 [Example 3, (S)-3-[(4-Phenyl-thiazole-2-carbonyl)-amino]-3-m-tolyl-propionic acid]"
4,368,"COc1ccc(-c2nc(C(=O)N[C@@H](CC(=O)O)c3ccccc3C)cs2)cc1 [Example 5, (S)-3-{[2-(4-Methoxy-phenyl)-thiazole-4-carbonyl]-amino}-3-o-tolyl-propionic acid]"
5,805,"Cc1ccccc1[C@H](CC(=O)O)NC(=O)c1csc(-c2ccncc2)n1 [Example 7, (S)-3-[(2-Pyridin-4-yl-thiazole-4-carbonyl)-amino]-3-o-tolyl-propionic acid]"
6,85,"Cc1ccccc1-c1nc(C(=O)N[C@@H](CC(=O)O)c2cccc(Cl)c2Cl)cs1 [Example 12, (S)-3-(2,3-Dichloro-phenyl)-3-[(2-o-tolyl-thiazole-4-carbonyl)-amino]-propionic acid]"
7,159,"O=C(O)C[C@H](NC(=O)c1csc(-c2cccc(Cl)c2Cl)n1)c1cccc(Cl)c1Cl [Example 14, (S)-3-(2,3-Dichloro-phenyl)-3-{[2-(2,3-dichloro-phenyl)-thiazole-4-carbonyl]-amino}-propionic acid]"
8,498,"COc1cccc([C@H](CC(=O)O)NC(=O)c2csc(-c3ccccc3)n2)c1OC [Example 18, (S)-3-(2,3-Dimethoxy-phenyl)-3-[(2-phenyl-thiazole-4-carbonyl)-amino]-propionic acid]"
9,875,"COc1cccc([C@H](CC(=O)O)NC(=O)c2csc(-c3ccccc3F)n2)c1OC [Example 19, (S)-3-(2,3-Dimethoxy-phenyl)-3-{[2-(2-fluoro-phenyl)-thiazole-4-carbonyl]-amino}-propionic acid]"
10,544,"O=C(O)C[C@H](NC(=O)c1csc(-c2ccccc2)n1)c1ccc(Cl)cc1Cl [Example 22, (S)-3-(2,4-Dichloro-phenyl)-3-[(2-phenyl-thiazole-4-carbonyl)-amino]-propionic acid]"
11,555,"O=C(O)C[C@H](NC(=O)c1csc(-c2cccc(Cl)c2Cl)n1)c1ccc(Cl)cc1Cl [Example 23, (S)-3-(2,4-Dichloro-phenyl)-3-{[2-(2,3-dichloro-phenyl)-thiazole-4-carbonyl]-amino}-propionic acid]"
12,6370,"O=C(O)C[C@H](NC(=O)c1csc(-c2ccc(C(F)(F)F)cc2)n1)c1ccc(Cl)cc1Cl [Example 25, (S)-3-(2,4-Dichloro-phenyl)-3-{[2-(4-trifluoromethyl-phenyl)-thiazole-4-carbonyl]-amino}-propionic acid]"
13,149,"Cc1ccccc1-c1nc(C(=O)N[C@@H](CC(=O)O)c2ccccc2Cl)cs1 [Example 26, (S)-3-(2-Chloro-phenyl)-3-[(2-o-tolyl-thiazole-4-carbonyl)-amino]-propionic acid]"
14,217,"O=C(O)C[C@H](NC(=O)c1csc(-c2ccccc2)n1)c1ccccc1Cl [Example 27, (S)-3-(2-Chloro-phenyl)-3-[(2-phenyl-thiazole-4-carbonyl)-amino]-propionic acid]"
15,100,"O=C(O)C[C@H](NC(=O)c1csc(-c2ccccc2Cl)n1)c1ccccc1Cl [Example 29, (S)-3-(2-Chloro-phenyl)-3-{[2-(2-chloro-phenyl)-thiazole-4-carbonyl]-amino}-propionic acid]"
